In patent US20210290680A1, “METHODS AND COMPOSITIONS FOR MODULATING CELLULAR AGING” (Dorian Therapeutics, Inc., priority 2019, published 2021):

Experiments:
[1] = tested on: Axin-2; test: qPCR of WNT pathway gene Axin-2; type: cell-based, human; settings: day 15, n=4; for Axin-2 expression, fold change vs Control: CD19.CAR
Excerpt: Primary T cells were activated as described (Example 3), transduced with a lentivirus encoding for either a CD19.CAR or a GD2.CAR co-expressing shUSP16 #1, shUSP16 #2 or a scrambled shRNA (Control). Fifteen days post-activation, T cells were collected and qPCR performed. TaqMan probes detecting CDKN1A, CDKN2A (FIGS. 26A and 26B) (fold change GD2.CAR (n=4): CDKN1A Control vs shUSP #1: 0.4360, p<0.0001, and Control vs shUSP16 #2: 3.036, p=0.004 respectively. Fold change CD19.CAR (n=4): CDKN2a, CDKN1A Control vs shUSP #1: 0.6906, p=0.0026; 0.7228, p=0.0297 and Control vs shUSP16 #2: 0.8385, p=0.2325; 0.7017, p=0.0021), TCF7, LEF1, and Axin-2 (FIGS. 27A and B) were analyzed in GD2.CAR and CD19.CAR-expressing cells, respectively. ACTB was used as internal control. (GD2.CAR (n=4) TCF7, LEF1 and Axin-2: Control vs shUSP #1: 1.914 p=0.0512; 1.795 p=0.0323; 3.269 p=0.15 and Control vs shUSP16 #2: 1.284 p=0.0494; 1.718 p=0.0586; 2.035p=0.235, respectively. Fold change CD19.CAR (n=4): TCF7, LEF1 and Axin-2: Control vs shUSP #1: 1.528, p=0.0277; 1.82, p=0.0449; 1.998, p=0.031 and Control vs shUSP16 #2: 1.18, p=0.2002; 1.579, p=0.0632; 1.261, p=0.2382). USP16 downregulation in CAR-T cells results in a decreased expression of senescence markers and an increase in the expression of genes associated with the activation/increased signaling of the WNT pathway, indicating its importance in delaying cellular senescence and increasing self-renewal.

[2] = tested on: CHLA-55 neuroblastoma cell lines; test: In vivo anti-tumor activity of GD2.CAR T cells (circulating Gaussia luciferase); settings: immunocompromised mice, one million GD2.CAR T cells via tail vein, n=4-6
Description: Primary T cells were activated as described (Example 3), transduced with a lentivirus encoding for either a CD19.CAR or a GD2.CAR co-expressing shUSP16 #1, shUSP16 #2, or a scrambled shRNA (Control). Cells were cultured in IL-2 and sorted between days 6-13 for EGFRt. At day 15 cells were frozen down (to mimic the clinic setting) and thawed d−1 before injection in immunocompromised mice. Immunocompromised mice (NCG (NOD CRISPR Prkdc II2r Gamma) were provided by Charles River and NSG (NOD.Cg-PrkdcIL2rg<tm1Wj1>/SzJ) were purchased from Jackson Laboratory). CHLA-55 neuroblastoma cell lines were transduced with Gaussia Luciferase and one million cells were injected via tail vein at d−7 (day minus 7).
One million of GD2.CAR T cells were infused via tail vain at day 0 and mice were weighted, and blood was collected every week (FIG. 36). Tumor growth was monitor by weekly assessment of circulating luciferase. Briefly, blood was collected and subsequently analyzed for luciferase expression using Nanolight Technologies Luciferase detection Kit. Luciferase expression (calculated as GLuc, RLU (Relative Luminescence Unit)) in the blood correlates with tumor engraftment.

[3] = tested on: NALM leukemia cell line; test: In vivo anti-tumor activity of CD19.CAR T cells (circulating Gaussia luciferase); settings: immunocompromised mice, one million CD19.CAR T cells via tail vein, n=4-6
Description: Primary T cells were activated and prepared, as in Example 26. NALM leukemia cell line was transduced with Gaussia Luciferase and one million cells were injected via tail vein at d−4. One million of CD19.CAR T cells were then infused via tail vein at d=0 and mice were weighted, and blood was collected every week (FIG. 38). Tumor growth was monitor by weekly assessment of circulating luciferase. Briefly, blood was collected and subsequently analyzed for luciferase expression using Nanolight Technologies Luciferase detection Kit. Luciferase expression (calculated as GLuc, RLU (Relative Luminescence Unit)) in the blood correlates with tumor engraftment. As NALM cells engraft primarily in the spleen, at the time of sacrifice, the spleens were collected and photographed (FIG. 39B), the size of the spleen directly correlates to the amount of tumor infiltrated in the organ.

[4] = tested on: CD69; test: Exhaustion marker CD69 by flow cytometry; type: cell-based, human; settings: for CD69%: day 16, n=3; for reduction of exhaustion marker CD69 expression (shCtrl vs shRNA): primary T cells, day 20
Description: Primary T cells were activated as described (Example 3), transduced with a lentivirus encoding either a shUSP16 #1, shUSP16 #2 or a non-targeting shRNA (shCtrl) and cells were selected with puromycin at day 6. At day 20, T cells were stained for CD69-Allophycocyanin (Biolegend) and T cells analyzed by MACSQuant (Miltenyi Biotec) (FIG. 19). Three primary T cell cultures were analyzed.
Primary T cells were activated as described (Example 3), transduced with a lentivirus encoding for either a CD19.CAR or a GD2.CAR co-expressing shUSP16 #1, shUSP16 #2 or a scrambled shRNA (Control). Cells were cultured in IL-2 and sorted between days 6-13 for EGFRt. At day 16, T cells were stained for exhaustion markers, including CD69.

[5] = tested on: CD19.CAR T cells; test: Apoptosis, necrosis, mitochondrial membrane potential and glutathione content (Amberglass panel); type: cell-based, human; settings: for cells with low mitochondrial membrane potential (Q1) / cellular health: high mitochondrial membrane potential and high GSH content (Q2): day 15; for apoptosis: day 15, FIG. 31A top left; for necrosis: day 15, FIG. 31A top right
Description: Primary T cells were activated as described (Example 3), and transduced with a lentivirus encoding for CD19.CAR co-expressing shUSP16 #1, shUSP16 #2 or a scrambled shRNA (Control). Cells were cultured in IL-2 and sorted between days 6-13 for EGFRt. At day 15 cells were stained and analyzed by MACSQuant for apoptosis, necrosis, mitochondrial membrane potential and glutathione content (GSH). The data generation was powered by Amberglass technology made available by Mojave Bio in the form of a dehydrated panel of reagents on a 96 well plate.

shUSP16 #1: shRNA targeting USP16, 5′-GACTGTAAGACTGACAATAAA-3′ (SEQ ID NO: 8), pSIH backbone or co-expressed in CAR plasmid
Axin-2 expression, fold change vs Control [1]: 1.998 | Axin-2 expression vs Control ([1]; GD2.CAR): 3.269 | CHLA-55 engraftment, luciferase expression in blood (GLuc) [2]: 53279 RLU | NALM engraftment, luciferase expression in blood (GLuc) [3]: 38603 RLU | CD69% ([4]; CD19.CAR): 13.70% | CD69% ([4]; GD2.CAR): 23.05% | reduction of exhaustion marker CD69 expression (shCtrl vs shRNA) [4]: 41% | cells with low mitochondrial membrane potential (Q1) [5]: 7.62 percentage of cells | cellular health: high mitochondrial membrane potential and high GSH content (Q2) [5]: 89.9 | apoptosis [5]: 9.40 | necrosis [5]: 4.75

shUSP16 #2: shRNA targeting USP16, 5′-TATATCAGTTCACCCGTAAT-3′ (SEQ ID NO: 9), pSIH backbone or co-expressed in CAR plasmid
Axin-2 expression, fold change vs Control [1]: 1.261 | CHLA-55 engraftment, luciferase expression in blood (GLuc) [2]: 38968 RLU | NALM engraftment, luciferase expression in blood (GLuc) [3]: 5169 RLU | CD69% ([4]; CD19.CAR): 27.17% | CD69% ([4]; GD2.CAR): 27.8% | reduction of exhaustion marker CD69 expression (shCtrl vs shRNA) [4]: 40% | cells with low mitochondrial membrane potential (Q1) [5]: 9.87 percentage of cells | cellular health: high mitochondrial membrane potential and high GSH content (Q2) [5]: 85.7 | apoptosis [5]: 8.25 | necrosis [5]: 3.96
